Data reported in PubChem BioAssay AID1259407 (Chemical Carcinogenesis Research Information System (CCRIS), 2018).
Calls of active or inactive are those of the source. No rule for the calls is given here.

Tested on: CCRIS mutagenicity, Ames/micronucleus/aberration tests
Experiment: CCRIS mutagenicity studies
[1] = Test System: AMES SALMONELLA TYPHIMURIUM, Strain/Indicator: TA98, Metabolic Activation: NONE, Method: PREINCUBATION
[2] = Test System: AMES SALMONELLA TYPHIMURIUM, Strain/Indicator: TA100, Metabolic Activation: NONE, Method: PREINCUBATION
[3] = Test System: AMES SALMONELLA TYPHIMURIUM, Strain/Indicator: TA1535, Metabolic Activation: NONE, Method: PREINCUBATION
[4] = Test System: AMES SALMONELLA TYPHIMURIUM, Strain/Indicator: TA1537, Metabolic Activation: NONE, Method: PREINCUBATION
[5] = Test System: AMES SALMONELLA TYPHIMURIUM, Strain/Indicator: TA98, Metabolic Activation: HAMSTER, LIVER, S-9, AROCLOR 1254 (10%), Method: PREINCUBATION
[6] = Test System: AMES SALMONELLA TYPHIMURIUM, Strain/Indicator: TA98, Metabolic Activation: RAT, LIVER, S-9, AROCLOR 1254 (10%), Method: PREINCUBATION
[7] = Test System: AMES SALMONELLA TYPHIMURIUM, Strain/Indicator: TA100, Metabolic Activation: HAMSTER, LIVER, S-9, AROCLOR 1254 (10%), Method: PREINCUBATION
[8] = Test System: AMES SALMONELLA TYPHIMURIUM, Strain/Indicator: TA100, Metabolic Activation: RAT, LIVER, S-9, AROCLOR 1254 (10%), Method: PREINCUBATION
[9] = Test System: AMES SALMONELLA TYPHIMURIUM, Strain/Indicator: TA1535, Metabolic Activation: HAMSTER, LIVER, S-9, AROCLOR 1254 (10%), Method: PREINCUBATION
[10] = Test System: AMES SALMONELLA TYPHIMURIUM, Strain/Indicator: TA1535, Metabolic Activation: RAT, LIVER, S-9, AROCLOR 1254 (10%), Method: PREINCUBATION
[11] = Test System: AMES SALMONELLA TYPHIMURIUM, Strain/Indicator: TA1537, Metabolic Activation: HAMSTER, LIVER, S-9, AROCLOR 1254 (10%), Method: PREINCUBATION
[12] = Test System: AMES SALMONELLA TYPHIMURIUM, Strain/Indicator: TA1537, Metabolic Activation: RAT, LIVER, S-9, AROCLOR 1254 (10%), Method: PREINCUBATION

CCCCCC[C@@H](O)C/C=C\CCCCCCCC(=O)O was tested, and the mutagenic call (Test System: AMES SALMONELLA TYPHIMURIUM, Strain/Indicator: TA98, Metabolic Activation: HAMSTER, LIVER, S-9, AROCLOR 1254, Method: PREINCUBATION) was “inactive; negative”, the mutagenic call [1] was “inactive; negative” and the mutagenic call (Test System: AMES SALMONELLA TYPHIMURIUM, Strain/Indicator: TA98, Metabolic Activation: RAT, LIVER, S-9, AROCLOR 1254, Method: PREINCUBATION) was “inactive; negative”. For the same compound, the mutagenic call (Test System: AMES SALMONELLA TYPHIMURIUM, Strain/Indicator: TA100, Metabolic Activation: HAMSTER, LIVER, S-9, AROCLOR 1254, Method: PREINCUBATION) was “inactive; negative”, the mutagenic call [2] was “inactive; negative” and the mutagenic call (Test System: AMES SALMONELLA TYPHIMURIUM, Strain/Indicator: TA100, Metabolic Activation: RAT, LIVER, S-9, AROCLOR 1254, Method: PREINCUBATION) was “inactive; negative”. The mutagenic call (Test System: AMES SALMONELLA TYPHIMURIUM, Strain/Indicator: TA1535, Metabolic Activation: HAMSTER, LIVER, S-9, AROCLOR 1254, Method: PREINCUBATION) was “inactive; negative”, the mutagenic call [3] was “inactive; negative” and the mutagenic call (Test System: AMES SALMONELLA TYPHIMURIUM, Strain/Indicator: TA1535, Metabolic Activation: RAT, LIVER, S-9, AROCLOR 1254, Method: PREINCUBATION) was “inactive; negative”. For the same compound, the mutagenic call (Test System: AMES SALMONELLA TYPHIMURIUM, Strain/Indicator: TA1537, Metabolic Activation: HAMSTER, LIVER, S-9, AROCLOR 1254, Method: PREINCUBATION) was “inactive; negative”, the mutagenic call [4] was “inactive; negative” and the mutagenic call (Test System: AMES SALMONELLA TYPHIMURIUM, Strain/Indicator: TA1537, Metabolic Activation: RAT, LIVER, S-9, AROCLOR 1254, Method: PREINCUBATION) was “inactive; negative”.

With CN(C)CCN(Cc1ccccc1)c1ccccc1 the mutagenic call [5] was “inactive; negative”, the mutagenic call [1] was “inactive; negative” and the mutagenic call [6] was “inactive; negative”. For the same compound, the mutagenic call [7] was “inactive; negative”, the mutagenic call [2] was “inactive; negative” and the mutagenic call [8] was “inactive; negative”. The mutagenic call [9] was “inactive; negative”, the mutagenic call [3] was “inactive; negative” and the mutagenic call [10] was “inactive; negative”. The mutagenic call [11] was “inactive; negative”, the mutagenic call [4] was “inactive; negative” and the mutagenic call [12] was “inactive; negative”.

For CCn1cc(C(=O)O)c(=O)c2cc3c(cc21)OCO3, the mutagenic call (Test System: AMES SALMONELLA TYPHIMURIUM, Strain/Indicator: TA102, Metabolic Activation: NONE, Method: STANDARD PLATE) was “active; positive”, the mutagenic call (Test System: AMES SALMONELLA TYPHIMURIUM, Strain/Indicator: TA2638, Metabolic Activation: NONE, Method: STANDARD PLATE) was “active; positive” and the mutagenic call (Test System: E. COLI, Strain/Indicator: WP2 (PKM101), Metabolic Activation: NONE, Method: STANDARD PLATE) was “active; positive”. For the same compound, the mutagenic call (Test System: E. COLI, Strain/Indicator: WP2 UVRA (PKM101), Metabolic Activation: NONE, Method: STANDARD PLATE) was “active; positive”.

For CSCC[C@H](NC(=O)COc1ccc(Cl)cc1Cl)C(=O)O, the mutagenic call (Test System: AMES SALMONELLA TYPHIMURIUM, Strain/Indicator: TA97, Metabolic Activation: RAT, LIVER, S-9, AROCLOR 1254, Method: STANDARD PLATE) was “inactive; negative”, the mutagenic call (Test System: AMES SALMONELLA TYPHIMURIUM, Strain/Indicator: TA97, Metabolic Activation: WOODCHUCK, LIVER, S-9, 3-METHYLCHOLANTHRENE, Method: STANDARD PLATE) was “inactive; negative” and the mutagenic call (Test System: AMES SALMONELLA TYPHIMURIUM, Strain/Indicator: TA98, Metabolic Activation: RAT, LIVER, S-9, AROCLOR 1254, Method: STANDARD PLATE) was “inactive; negative”. The mutagenic call (Test System: AMES SALMONELLA TYPHIMURIUM, Strain/Indicator: TA98, Metabolic Activation: WOODCHUCK, LIVER, S-9, 3-METHYLCHOLANTHRENE, Method: STANDARD PLATE) was “inactive; negative”, the mutagenic call (Test System: AMES SALMONELLA TYPHIMURIUM, Strain/Indicator: TA100, Metabolic Activation: RAT, LIVER, S-9, AROCLOR 1254, Method: STANDARD PLATE) was “inactive; negative” and the mutagenic call (Test System: AMES SALMONELLA TYPHIMURIUM, Strain/Indicator: TA100, Metabolic Activation: WOODCHUCK, LIVER, S-9, 3-METHYLCHOLANTHRENE, Method: STANDARD PLATE) was “inactive; negative”. The mutagenic call (Test System: AMES SALMONELLA TYPHIMURIUM, Strain/Indicator: TA1535, Metabolic Activation: RAT, LIVER, S-9, AROCLOR 1254, Method: STANDARD PLATE) was “inactive; negative”, the mutagenic call (Test System: AMES SALMONELLA TYPHIMURIUM, Strain/Indicator: TA1535, Metabolic Activation: WOODCHUCK, LIVER, S-9, 3-METHYLCHOLANTHRENE, Method: STANDARD PLATE) was “inactive; negative” and the mutagenic call (Test System: AMES SALMONELLA TYPHIMURIUM, Strain/Indicator: TA1538, Metabolic Activation: RAT, LIVER, S-9, AROCLOR 1254, Method: STANDARD PLATE) was “inactive; negative”. For the same compound, the mutagenic call (Test System: AMES SALMONELLA TYPHIMURIUM, Strain/Indicator: TA1538, Metabolic Activation: WOODCHUCK, LIVER, S-9, 3-METHYLCHOLANTHRENE, Method: STANDARD PLATE) was “inactive; negative”.

In the case of CCCCCCC(C)COC(=O)c1ccccc1C(=O)OCC(C)CCCCCC (stereo unspecified), the mutagenic call [5] is reported as “inactive; negative”, the mutagenic call [1] is reported as “inactive; negative” and the mutagenic call (Test System: AMES SALMONELLA TYPHIMURIUM, Strain/Indicator: TA98, Metabolic Activation: RAT LIVER S-9, AROCLOR, Method: PREINCUBATION) is reported as “inactive; negative”. The mutagenic call [6] was “inactive; negative”, the mutagenic call [7] was “inactive; negative” and the mutagenic call [2] was “inactive; negative”. For the same compound, the mutagenic call (Test System: AMES SALMONELLA TYPHIMURIUM, Strain/Indicator: TA100, Metabolic Activation: RAT LIVER S-9, AROCLOR, Method: PREINCUBATION) was “inactive; negative”, the mutagenic call [8] was “inactive; negative” and the mutagenic call [9] was “inactive; negative”. For the same compound, the mutagenic call [3] was “inactive; negative”, the mutagenic call (Test System: AMES SALMONELLA TYPHIMURIUM, Strain/Indicator: TA1535, Metabolic Activation: RAT LIVER S-9, AROCLOR, Method: PREINCUBATION) was “inactive; negative” and the mutagenic call [10] was “inactive; negative”. The mutagenic call [11] was “inactive; negative”, the mutagenic call [4] was “inactive; negative” and the mutagenic call (Test System: AMES SALMONELLA TYPHIMURIUM, Strain/Indicator: TA1537, Metabolic Activation: RAT LIVER S-9, AROCLOR, Method: PREINCUBATION) was “inactive; negative”. The mutagenic call [12] was “inactive; negative”, the mutagenic call (Test System: MOUSE LYMPHOMA, Strain/Indicator: L5178Y (TK+/TK-), Metabolic Activation: NONE, Method: SUSPENSION/PLATE) was “inactive; negative” and the mutagenic call (Test System: MOUSE LYMPHOMA, Strain/Indicator: L5178Y (TK+/TK-), Metabolic Activation: RAT LIVER S-9, Method: SUSPENSION/PLATE) was “inactive; negative”.
